According to publication PMC6488038 (Journal of the American Chemical Society, 2018):

Tested on: HCT116 cells
Experiment: Cell viability, Alamar Blue assay, HCT116
Assay type: cell-based, human
Conditions: 72 h

For `N#Cc1c2c(cc3c1C(=O)N[C@@H]1C3=C[C@H](O)[C@@H](O)[C@H]1O)OCO2` [compound 46, 7cyanolycoricidine], which “activity compared to lycoricidine (3)” value is on record?
Its value is “increased activity”.
